Values quoted from earlier work as cited in patent publication US4486419A, “5,2',3',4',4",6"-Hexadeoxykanamycin and its 1-N-acylated derivative” (Zaidan Hojin Biseibutsu Kagaku Kenkyu Kai, priority 1982, dated 1984).

System: dibekacin-resistant bacteria
Conditions: background, U.S. Pat. No. 4,107,424; cited from earlier work

**Q.** Which “activity against dibekacin-resistant bacteria” value does the source give for `NCC[C@H](O)C(=O)N[C@@H]1C[C@H](N)[C@@H](O[C@H]2O[C@H](CN)CC[C@H]2N)[C@H](O)[C@H]1O[C@H]1O[C@H](CO)[C@@H](O)[C@H](N)[C@H]1O` [Habekacin, 1-N-[(S)-4-amino-2-hydroxybutyryl] dibekacin] here?
**A.** The value was “active against dibekacin-resistant bacteria”.
